{"source": "patent US20250161286A1", "about": "(AEVIS BIO, INC., priority 2022, published 2025)", "assay": "Cytotoxicity evaluation, CCK analysis kit", "format": "cell-based", "settings": "human, MM.1S (CRL-2974) multiple myeloma cells; MM.1S cells, treated for 3 days", "protocol": "The MM.1S (CRL-2974) cell line, which is a human multiple myeloma cell line, was purchased from the American Type Culture Collection (ATCC, Manassas, VA, USA) and used, and incubated using RPMI1640 medium (Corning, MD, USA) supplemented with 10% fatal bovine serum (Corning, MD, USA), 100 U/ml of penicillin (Corning, MD, USA), and 100 μg/ml of streptomycin (Corning, MD, USA) at 37° C. in a 5% CO2 incubator for 24 hours.", "data": [{"smiles": "Nc1cccc2c1C(=O)N(C1CCC(=O)NC1=O)C2=O", "note": "(racemic) [pomalidomide, (R,S)-4-amino-2-(2,6-dioxopiperidin-3-yl)isoindole-1,3-dione, reference compound]", "values": [{"measurement": "IC50 at 3 days", "result": 69, "unit": "nM"}]}]}
